Measured values as given in the NIST ThermoML archive (doi:10.1021/je100237h).
± gives the expanded uncertainty stated by the source.

Conditions: Liquid; for mass density: Vibrating tube method; for viscosity: 101.33 kPa, Concentric cylinders viscometry

COC(=O)CCCCC(=O)OC [dimethyl 1,6-hexanedioate]
mass density [kg/m3]
Conditions | 343.15 K | 353.15 K | 363.15 K | 373.15 K | 383.15 K | 393.15 K | 403.15 K
100 kPa | – | 1002.2 ± 2 | 992.2 ± 2 | 981.9 ± 2 | 972.2 ± 2 | 961.7 ± 1.9 | 951.5 ± 1.9
10000 kPa | – | 1010.8 ± 2 | 1000.6 ± 2 | 991 ± 2 | 981.1 ± 2 | 971.7 ± 2 | 961.4 ± 1.9
20000 kPa | – | 1018.4 ± 2.1 | 1008.9 ± 2 | 999.5 ± 2 | 990.4 ± 2 | 981.5 ± 2 | 971.6 ± 2
30000 kPa | – | 1025.6 ± 2.1 | 1016.6 ± 2 | 1007.7 ± 2 | 998.7 ± 2 | 990.1 ± 2 | 980.8 ± 2
40000 kPa | – | 1032.8 ± 2.1 | 1023.7 ± 2.1 | 1014.8 ± 2 | 1006.3 ± 2 | 998.2 ± 2 | 989.3 ± 2
50000 kPa | – | 1039 ± 2.1 | 1030.4 ± 2.1 | 1021.8 ± 2.1 | 1013.9 ± 2 | 1005.9 ± 2 | 997.3 ± 2
60000 kPa | – | 1045.4 ± 2.1 | 1036.8 ± 2.1 | 1029 ± 2.1 | 1020.5 ± 2.1 | 1013 ± 2 | 1004.5 ± 2
70000 kPa | – | 1051.2 ± 2.1 | 1042.9 ± 2.1 | 1035 ± 2.1 | 1027 ± 2.1 | 1019.7 ± 2.1 | 1011.5 ± 2.1
80000 kPa | – | 1056.7 ± 2.2 | 1048.5 ± 2.1 | 1040.9 ± 2.1 | 1033.2 ± 2.1 | 1026 ± 2.1 | 1018.2 ± 2.1
90000 kPa | – | 1061.9 ± 2.2 | 1053.9 ± 2.2 | 1046.4 ± 2.1 | 1039 ± 2.1 | 1032.1 ± 2.1 | 1024.5 ± 2.1
100000 kPa | – | 1067.3 ± 2.2 | 1059.2 ± 2.2 | 1051 ± 2.2 | 1044.7 ± 2.2 | 1037.7 ± 2.1 | 1030.2 ± 2.1
110000 kPa | – | 1072.2 ± 2.2 | 1064.3 ± 2.2 | 1056.3 ± 2.2 | 1050.1 ± 2.2 | 1043.1 ± 2.2 | 1035.9 ± 2.2
120000 kPa | – | 1076.6 ± 2.3 | 1069.1 ± 2.3 | 1061.6 ± 2.2 | 1055.2 ± 2.2 | 1048.7 ± 2.2 | 1041.3 ± 2.2
130000 kPa | 1088.3 ± 2.3 | 1081.3 ± 2.3 | 1074.1 ± 2.3 | 1066 ± 2.3 | 1059.9 ± 2.2 | 1053.8 ± 2.2 | 1046.6 ± 2.2
140000 kPa | 1092.4 ± 2.4 | 1085.6 ± 2.3 | 1078.5 ± 2.3 | 1071.2 ± 2.3 | 1065.1 ± 2.3 | 1058.5 ± 2.3 | 1051.6 ± 2.3

Conditions | viscosity [mPa·s]
348.15 K | 1.25 ± 0.03
353.15 K | 1.17 ± 0.03
358.15 K | 1.1 ± 0.02
363.15 K | 1.03 ± 0.02
368.15 K | 0.97 ± 0.02
373.15 K | 0.92 ± 0.02
